Tests used:
[1] = Cell viability assay (MTT), normal cells; format: cell-based; conditions: human, MCF-10A normal mammary gland epithelial cells, four-day incubation
prostatic - PC-3 = assay: Antiproliferative assay (MTT) PC-3
colon - HCT-116 = assay: Antiproliferative assay (MTT) HCT-116
breast - MCF-7 = assay: Antiproliferative assay (MTT) MCF-7
[2] = test system: four human cancer cell lines (HCT-116, PC-3, MCF-7, MDAMB-231); assay: Antiproliferative assay, mean of four cell lines (GI50)
tubulin = assay: Tubulin polymerization inhibition assay (Cytoskeleton kit); conditions: for Tub %inh: 30 min, YB-EGY run; for Tub K.Activity: EC = 120, YB-EGY run;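 for all read-outs here: Cell-free tubulin polymerization read by fluorescent reporter enhancement over a 30 min reaction, with the compound-free kit control taken as 100% activity and inhibition relative to it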
- MDAMB-231 = assay: Antiproliferative assay (MTT) MDAMB-231
pancreatic - MDAMB-231 = assay: Antiproliferative assay (MTT) MDAMB-231; conditions: read-out: Antiproliferative activity IC50 ± SEM (µM) MDAMB-231; MDAMB-231, MTT

## Cc1nc(SCC(=O)Nc2nccs2)sc1C(=O)/C=C/c1ccc(Cl)cc1 [Compound 13b, (E)-2-((5-(3-(4-chlorophenyl)acryloyl)-4-methylthiazol-2-yl)thio)-N-(thiazol-2-yl)acetamide]
[1]
  viability at 96 h, 50 µM: 87%
Prostatic - PC-3; PC-3, 1.56 µM
  Average of Relative viability of cells (%): 100%
Prostatic - PC-3; PC-3, 3.125 µM
  Average of Relative viability of cells (%): 86.4%
Prostatic - PC-3; PC-3, 6.25 µM
  Average of Relative viability of cells (%): 69.2%
Prostatic - PC-3; PC-3, 12.5 µM
  Average of Relative viability of cells (%): 45.8%
Prostatic - PC-3; PC-3, 25 µM
  Average of Relative viability of cells (%): 33.7%
Prostatic - PC-3; PC-3, 50 µM
  Average of Relative viability of cells (%): 25.3%
Prostatic - PC-3; PC-3, 100 µM
  Average of Relative viability of cells (%): 17.1%
Prostatic - PC-3; read-out: Antiproliferative activity IC50 ± SEM (µM) PC-3, PC-3, MTT
  IC50: 14 ± 1.2 µM
Colon - HCT-116; HCT-116, 1.56 µM
  Average of Relative viability of cells (%): 100%
Colon - HCT-116; HCT-116, 3.125 µM
  Average of Relative viability of cells (%): 92.7%
Colon - HCT-116; HCT-116, 6.25 µM
  Average of Relative viability of cells (%): 73.3%
Colon - HCT-116; HCT-116, 12.5 µM
  Average of Relative viability of cells (%): 53.2%
Colon - HCT-116; HCT-116, 25 µM
  Average of Relative viability of cells (%): 39.5%
Colon - HCT-116; HCT-116, 50 µM
  Average of Relative viability of cells (%): 27.4%
Colon - HCT-116; HCT-116, 100 µM
  Average of Relative viability of cells (%): 14.3%
Colon - HCT-116; read-out: Antiproliferative activity IC50 ± SEM (µM) HCT-116, HCT-116, MTT
  IC50: 17 ± 1.4 µM
Breast - MCF-7; MCF-7, 1.56 µM
  Average of Relative viability of cells (%): 97.8%
Breast - MCF-7; MCF-7, 3.125 µM
  Average of Relative viability of cells (%): 83.5%
Breast - MCF-7; MCF-7, 6.25 µM
  Average of Relative viability of cells (%): 57.1%
Breast - MCF-7; MCF-7, 12.5 µM
  Average of Relative viability of cells (%): 39.3%
Breast - MCF-7; MCF-7, 25 µM
  Average of Relative viability of cells (%): 22.6%
Breast - MCF-7; MCF-7, 50 µM
  Average of Relative viability of cells (%): 14.7%
Breast - MCF-7; MCF-7, 100 µM
  Average of Relative viability of cells (%): 8.2%
Breast - MCF-7; read-out: Antiproliferative activity IC50 ± SEM (µM) MCF-7, MCF-7, MTT
  IC50: 9 ± 0.7 µM
[2]; GI50 ratio
  Reduced potency compared to doxorubicin (GI50): at least 2.5 fold
  Reduced potency compared to sorafenib (GI50): ≥ 1.5 fold
[2]; Homo sapiens, read-out: GI50 (average IC50)
  IC50: 12 µM
tubulin; conc 0.1 (unit not given)
  Tub %inh: 15.2%
  Tub K.Activity: 101.7
tubulin; conc 1 (unit not given)
  Tub %inh: 32.3%
  Tub K.Activity: 81.254
tubulin; conc 10 (unit not given)
  Tub %inh: 54.2%
  Tub K.Activity: 54.918
tubulin; conc 50 (unit not given)
  Tub %inh: 76.9%
  Tub K.Activity: 27.751
tubulin; conc 100 (unit not given)
  Tub %inh: 92.3%
  Tub K.Activity: 9.196
tubulin; read-out: Tubulin inhibition IC50 ± SEM, triplicate for each tested concentration
  IC50: 3.73 ± 0.11 µM
- MDAMB-231; MDAMB-231, 1.56 µM
  Average of Relative viability of cells (%): 91.7%
- MDAMB-231; MDAMB-231, 3.125 µM
  Average of Relative viability of cells (%): 68.9%
- MDAMB-231; MDAMB-231, 6.25 µM
  Average of Relative viability of cells (%): 60.5%
- MDAMB-231; MDAMB-231, 12.5 µM
  Average of Relative viability of cells (%): 34.6%
- MDAMB-231; MDAMB-231, 25 µM
  Average of Relative viability of cells (%): 26.3%
- MDAMB-231; MDAMB-231, 50 µM
  Average of Relative viability of cells (%): 17.4%
- MDAMB-231; MDAMB-231, 100 µM
  Average of Relative viability of cells (%): 9.2%
Pancreatic - MDAMB-231
  IC50: 8 ± 0.7 µM
